Test results from ChEMBL document CHEMBL1201862, “PubChem BioAssay data set” (2004).
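All cell lines were grown in 96-well plates and treated with compound for 48 hours. The concentration for 50% growth inhibition is given as GI50.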 Calls of active or inactive are those of the source. No stated cut-off is given here; in the data, active = GI50 up to about 1.1 µM and inactive = higher.

Tests used:
Test in all cases: NCI-60 cell line screen, 48 h
[1] = system: HCC 2998
[2] = system: SNB-19
[3] = system: OVCAR-5
[4] = system: LOX IMVI
[5] = system: UACC-257
[6] = system: K562
[7] = system: SW-620
[8] = system: HOP-62
[9] = system: SF-268
[10] = system: HL-60
[11] = system: OVCAR-4
[12] = system: RPMI-8226
[13] = system: SK-MEL-2
[14] = system: NCI-H460
[15] = system: CAKI-1
[16] = system: OVCAR-8
[17] = system: CCRF-CEM
[18] = system: UACC-62
[19] = system: SNB-75
[20] = system: SF-539

Row | Compound | GI50 [1] | GI50 [2] | GI50 [3] | GI50 [4] | GI50 [5] | GI50 [6] | GI50 [7] | GI50 [8] | GI50 [9] | GI50 [10] | GI50 [11] | GI50 [12] | GI50 [13] | GI50 [14] | GI50 [15] | GI50 [16] | GI50 [17] | GI50 [18] | GI50 [19] | GI50 [20]
1 | c1ccc(C(c2ccccc2)[P+](c2ccccc2)(c2ccccc2)c2ccccc2)cc1 | 0.365 µM (active) | 0.526 µM (active) | 0.933 µM (active) | 0.265 µM (active) | 0.348 µM (active) | 0.427 µM (active) | 0.466 µM (active) | 0.867 µM (active) | 0.556 µM (active) | 0.182 µM (active) | 0.479 µM (active) | 0.226 µM (active) | 0.305 µM (active) | 0.456 µM (active) | 2.69 µM (inactive) | 0.542 µM (active) | 0.317 µM (active) | 0.332 µM (active) | 0.467 µM (active) | 1.27 µM (inactive)
2 | COc1ccc(NC(=O)C(=O)C(C(=O)c2ccccc2)C2OC(=O)c3ccccc32)c([N+](=O)[O-])c1 (stereo not given) | > 100 µM (inactive) | > 100 µM (inactive) | > 100 µM (inactive) | > 100 µM (inactive) | > 100 µM (inactive) | > 100 µM (inactive) | > 100 µM (inactive) | > 100 µM (inactive) | > 100 µM (inactive) | > 100 µM (inactive) | > 100 µM (inactive) | > 100 µM (inactive) | > 100 µM (inactive) | > 100 µM (inactive) | > 100 µM (inactive) | > 100 µM (inactive) | > 100 µM (inactive) | > 100 µM (inactive) | > 100 µM (inactive) | > 100 µM (inactive)
3 | CC(=O)NNc1nc(C)c(C(=O)NNC(=O)C(=O)Nc2ccc([N+](=O)[O-])cc2[N+](=O)[O-])s1 | > 100 µM (inactive) | > 100 µM (inactive) | > 100 µM (inactive) | > 100 µM (inactive) | > 100 µM (inactive) | 39.4 µM (inactive) | > 100 µM (inactive) | > 100 µM (inactive) | > 100 µM (inactive) | 64.9 µM (inactive) | > 100 µM (inactive) | 99.8 µM (inactive) | > 100 µM (inactive) | > 100 µM (inactive) | 57.1 µM (inactive) | > 100 µM (inactive) | 22.3 µM (inactive) | > 100 µM (inactive) | 47.5 µM (inactive) | > 100 µM (inactive)
4 | COc1cccc2c1C(=O)c1c(O)c3c(c(O)c1C2=O)CC(O)(C(=O)CO)CC3OC1CC(N)C(I)C(C)O1 (stereo not given) | 13.5 µM (inactive) | 3.12 µM (inactive) | 13.5 µM (inactive) | 1.45 µM (inactive) | > 29.3 µM (inactive) | 4.76 µM (inactive) | 3.08 µM (inactive) | 1.6 µM (inactive) | 15.9 µM (inactive) | 0.428 µM (active) | 4.01 µM (inactive) | 4.5 µM (inactive) | 9.79 µM (inactive) | 0.313 µM (active) | 2.87 µM (inactive) | 3.58 µM (inactive) | 1.08 µM (active) | 1.58 µM (inactive) | 2.52 µM (inactive) | 2.62 µM (inactive)
